From PubChem BioAssay AID328 (DTP/NCI, 2004)
Where “and” joins values, the source holds several entries; their conditions need not be identical. Equal values may be shown once. Toxic doses and inconclusive results are not listed.

System: BDF1 mice, P388 leukemia ip, median survival T/C
Assay: NCI In Vivo Anticancer Drug Screen. Data for tumor model P388 Leukemia (intraperitoneal) in B6D2F1 (BDF1) mice
Settings: endpoint: median survival time, higher = longer survival
Outline: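 Read-out is survival of treated animals expressed relative to the vehicle group, as a T/C ratio.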

[1] = dose: 100.0 mg/kg/injection, schedule: Q01DX009 (ip), vehicle: saline with Tween-80
[2] = dose: 200.0 mg/kg/injection, schedule: Q01DX009 (ip), vehicle: saline with Tween-80
[3] = dose: 50.0 mg/kg/injection, schedule: Q01DX009 (ip), vehicle: saline with Tween-80

Question: Which T/C (dose: 12.5 mg/kg/injection, schedule: Q04DX003 (ip), vehicle: saline) does the source give for `NC(=O)NNC(N)=O` here?
Answer: The T/C was 105 % of control.

Question: What about the T/C (dose: 25.0 mg/kg/injection, schedule: Q01DX009 (ip), vehicle: saline) of the same compound?
Answer: Its T/C is 100 % of control.

Question: And the T/C (dose: 25.0 mg/kg/injection, schedule: Q04DX003 (ip), vehicle: saline)?
Answer: Its T/C is 116 % of control.

Question: What about the T/C (dose: 50.0 mg/kg/injection, schedule: Q01DX009 (ip), vehicle: saline) of the same compound?
Answer: The T/C was 100 % of control.

Question: And the T/C (dose: 50.0 mg/kg/injection, schedule: Q04DX003 (ip), vehicle: saline)?
Answer: Its T/C is 100 % of control.

Question: What about the T/C (dose: 75.0 mg/kg/injection, schedule: Q04DX003 (ip), vehicle: saline) of the same compound?
Answer: The T/C was 100 % of control.

Question: And the T/C (dose: 115.0 mg/kg/injection, schedule: Q04DX003 (ip), vehicle: saline)?
Answer: The T/C was 86 % of control.

Question: And the T/C (dose: 170.0 mg/kg/injection, schedule: Q04DX003 (ip), vehicle: saline)?
Answer: The T/C was 90 % of control.

Question: Which T/C [1] does the source give for `C[C@@H]1CC2=CC(=O)CC[C@]2(C)[C@H]2CC[C@]3(C)[C@@H](O)CC[C@H]3[C@H]12` here?
Answer: Its T/C is 100 % of control.

Question: And the T/C (dose: 100.0 mg/kg/injection, schedule: Q04DX003 (ip), vehicle: saline with Tween-80)?
Answer: Its T/C is 100 % of control.

Question: What about the T/C [2] of the same compound?
Answer: Its T/C is 95 % of control.

Question: What about the T/C (dose: 200.0 mg/kg/injection, schedule: Q04DX003 (ip), vehicle: saline with Tween-80) of the same compound?
Answer: The T/C was 109 % of control.

Question: And the T/C (dose: 400.0 mg/kg/injection, schedule: Q01DX009 (ip), vehicle: saline with Tween-80)?
Answer: Its T/C is 90 % of control.

Question: What about the T/C (dose: 400.0 mg/kg/injection, schedule: Q04DX003 (ip), vehicle: saline with Tween-80) of the same compound?
Answer: The T/C was 95 % of control.

Question: With `CO[C@H](C)[C@@](O)(C(=O)OCC1=CCN2CCC[C@@H]12)C(C)C` as the compound, how does the T/C (dose: 20.0 mg/kg/injection, schedule: Q01DX010 (ip), vehicle: carboxymethylcellulose (CMC)) read?
Answer: The T/C was 95 % of control.

Question: What about the T/C (dose: 40.0 mg/kg/injection, schedule: Q01DX010 (ip), vehicle: carboxymethylcellulose (CMC)) of the same compound?
Answer: Its T/C is 115 % of control.

Question: And the T/C (dose: 80.0 mg/kg/injection, schedule: Q01DX010 (ip), vehicle: carboxymethylcellulose (CMC))?
Answer: Its T/C is 110 % of control.

Question: `O=C1CCC(NC2OC(=O)c3ccccc32)C(=O)O1` (centres undefined) was tested. Which T/C [3] did it give?
Answer: Its T/C is 111 % of control.

Question: And the T/C [1]?
Answer: The T/C was 102 % of control.

Question: And the T/C [2]?
Answer: The T/C was 109 % of control.

Question: How did the T/C (dose: 50.0 mg/kg/injection, schedule: Q01DX005 (ip), vehicle: saline with Tween-80) turn out when `O=S(=O)(Cc1ccc(Cl)cc1)c1nc2ccccc2s1` was run?
Answer: The T/C was 107 % of control.

Question: What about the T/C (dose: 100.0 mg/kg/injection, schedule: Q01DX005 (ip), vehicle: saline with Tween-80) of the same compound?
Answer: The T/C was 105 % of control.

Question: With `O=C(NOCc1cc2c(cc1Cl)OCO2)c1ccc(S(=O)(=O)F)cc1` as the compound, how does the T/C (dose: 100.0 mg/kg/injection, schedule: Q01DX001 (ip), vehicle: saline sonified) read?
Answer: Its T/C is 104 % of control.

Question: What about the T/C (dose: 200.0 mg/kg/injection, schedule: Q01DX001 (ip), vehicle: saline sonified) of the same compound?
Answer: Its T/C is 86 % of control.

Question: And the T/C (dose: 400.0 mg/kg/injection, schedule: Q01DX001 (ip), vehicle: saline sonified)?
Answer: The T/C was 86 % of control.

Question: Which T/C (dose: 100.0 mg/kg/injection, schedule: Q01DX009 (ip), vehicle: Klucel (hydroxypropylcellulose) (HPC)) does the source give for `Cc1ccc(C(Br)C2=CC(C)(C)c3ccccc3C2=O)cc1` (centres undefined) here?
Answer: Its T/C is 118 % of control.

Question: And the T/C (dose: 100.0 mg/kg/injection, schedule: Q04DX003 (ip), vehicle: Klucel (hydroxypropylcellulose) (HPC))?
Answer: Its T/C is 95 % of control.

Question: What about the T/C (dose: 200.0 mg/kg/injection, schedule: Q01DX009 (ip), vehicle: Klucel (hydroxypropylcellulose) (HPC)) of the same compound?
Answer: The T/C was 90 % of control and 95 % of control.

Question: What about the T/C (dose: 200.0 mg/kg/injection, schedule: Q04DX003 (ip), vehicle: Klucel (hydroxypropylcellulose) (HPC)) of the same compound?
Answer: Its T/C is 113 % of control.

Question: What about the T/C (dose: 300.0 mg/kg/injection, schedule: Q01DX009 (ip), vehicle: Klucel (hydroxypropylcellulose) (HPC)) of the same compound?
Answer: The T/C was 113 % of control.

Question: What about the T/C (dose: 400.0 mg/kg/injection, schedule: Q01DX009 (ip), vehicle: Klucel (hydroxypropylcellulose) (HPC)) of the same compound?
Answer: Its T/C is 100 % of control.

Question: What about the T/C (dose: 400.0 mg/kg/injection, schedule: Q04DX003 (ip), vehicle: Klucel (hydroxypropylcellulose) (HPC)) of the same compound?
Answer: Its T/C is 113 % of control.

Question: Which results are given for `N=C(N)SCc1c2ccccc2c(CSC(=N)N)c2ccccc12`?
Answer: T/C (dose: 2.5 mg/kg/injection, schedule: Q01DX010 (ip), vehicle: saline): 183 % of control; T/C (dose: 5.0 mg/kg/injection, schedule: Q01DX010 (ip), vehicle: saline): 220 % of control; T/C (dose: 10.0 mg/kg/injection, schedule: Q01DX010 (ip), vehicle: saline): 235 % of control and 195 % of control; T/C (dose: 20.0 mg/kg/injection, schedule: Q01DX010 (ip), vehicle: saline): 208 % of control and 215 % of control

Question: How did the T/C [3] turn out when `NC(N)=Nc1cccc(C(F)(F)F)c1` was run?
Answer: The T/C was 94 % of control.

Question: And the T/C [1]?
Answer: Its T/C is 100 % of control.

Question: And the T/C [2]?
Answer: Its T/C is 109 % of control.

Question: What does the source list for `CCCC(=O)NC1=C(N2CC2)C(=O)C(NC(=O)CCC)=C(N2CC2)C1=O`?
Answer: T/C (dose: 0.44 mg/kg/injection, schedule: Q04DX003 (ip), vehicle: saline with Tween-80): 104 % of control; T/C (dose: 0.66 mg/kg/injection, schedule: Q04DX003 (ip), vehicle: saline with Tween-80): 109 % of control; T/C (dose: 1.0 mg/kg/injection, schedule: Q01DX009 (ip), vehicle: saline): 213 % of control; T/C (dose: 1.0 mg/kg/injection, schedule: Q04DX003 (ip), vehicle: saline with Tween-80): 122 % of control; T/C (dose: 1.5 mg/kg/injection, schedule: Q04DX003 (ip), vehicle: saline with Tween-80): 100 % of control; T/C (dose: 2.0 mg/kg/injection, schedule: Q01DX009 (ip), vehicle: saline): 200 % of control; T/C (dose: 2.5 mg/kg/injection, schedule: Q04DX003 (ip), vehicle: saline with Tween-80): 150 % of control; T/C (dose: 4.0 mg/kg/injection, schedule: Q01DX009 (ip), vehicle: saline): 285 % of control; T/C (dose: 5.0 mg/kg/injection, schedule: Q04DX003 (ip), vehicle: saline with Tween-80): 204 % of control; T/C (dose: 10.0 mg/kg/injection, schedule: Q04DX003 (ip), vehicle: saline with Tween-80): 250 % of control
